Series [1] deals with S. aureus USA300 JE2 expressing GFP in H460 cells. The series is described as follows: microbe, parasite or virus in culture. Format: cell-based, Staphylococcus aureus. The conditions noted are these: for MIC50: Staphylococcus aureus, USA300, 24 h, read-out: H460 Assay MIC50 (MIC50 ex vivo). The source says: Staphylococcus aureus, including MRSA, can invade host cells and replicate intracellularly, which complicates treatment with current therapies. To evaluate the intracellular antibacterial activities of the selected compounds, the fifteen compounds tested for cytotoxicity were further assessed using a cell infection model based on H460 human lung epithelial cells, which mimic MRSA-mediated pneumonia. H460 cells were infected with the USA300 JE2 expressing green fluorescent protein (GFP) and subsequently treated with the compounds in a dose–response manner, along with three reference antibiotics: vancomycin, linezolid, and erythromycin. After 24 h of incubation, bacterial loads were quantified by measuring GFP fluorescence in each well. MIC50 values determined in the H460 infection model (MIC50 ex vivo) were generally higher than those obtained from the in vitro tests, likely due to either limited compound penetration into host cells or reduced antibacterial effect of the compounds against intracellular bacteria (Figure 3, Table 2). […] These findings underscore the potential of compound 6y as a promising lead for further development as a novel antistaphylococcal agent.
To see the ex vivo antimicrobial activity of the compound, the human lung carcinoma cell line H460 (ATCC #HTB-177) was used. The H460 cells were cultured in RPMI 1640 medium with 10% fetal bovine serum (FBS) and in a 96-well microplate at 37 °C and 5% CO2. Cell lines were cultured for 2 days, until they reached full confluence in the well. S. aureus (USA300-containing and pCM29-encoding GFP) was cultured in CAMHB with 10 µg/mL of chloramphenicol, and bacterial cells were harvested. After washing the bacterial cells with phosphate-buffered saline (PBS) and suspending them in RPMI, infected H460 cells with S. aureus (1 × 10^7 CFU) and incubated them for 2.5 h. Samples were washed three times with PBS. Then, cells were treated with gentamicin (50 µg/mL of gentamicin in RPMI) and incubated for 1 h. Samples were washed with PBS, RPMI-containing diluted compounds were added, and then they were incubated at 37 °C in 5% CO2 for 24 h. To detect the Green fluorescent protein (GFP) signal, an Ensight multimode plate reader and Opera Phenix Plus (Revvity, Waltham, MA, USA) were used.
Ex vivo infection model images were generated using the Opera Phenix Plus high-content imaging system. Images were obtained by a confocal microscope with a 20× water objective lens. To detect the bacteria fluorescence signal (GFP), the Alexa 488 channel (488 nm laser/500–550 filter, Thermo Fisher Scientific, Waltham, MA, USA) was used, and the brightfield channel was used for H460 cell images.
Figure 3 Antibacterial activities of 2-(amino)quinazolin-4(3H)-one derivatives in the H460 infection model. H460 cells were infected with S. aureus USA300 JE strain expressing GFP, followed by treatment with serial dilutions of 2-(amino)quinazolin-4(3H)-one derivatives. After incubation at 37 °C for 24 h with 5% CO2, fluorescence signals of the bacteria were detected at 488 nm/510 nm using a multilabel plate reader.

The target of series [2] is T1, CYP2C19 (Homo sapiens, UniProt P33261).
T1 construct: from tissue; host or cells: human liver microsomes
T1 sequence (P33261 whole entry): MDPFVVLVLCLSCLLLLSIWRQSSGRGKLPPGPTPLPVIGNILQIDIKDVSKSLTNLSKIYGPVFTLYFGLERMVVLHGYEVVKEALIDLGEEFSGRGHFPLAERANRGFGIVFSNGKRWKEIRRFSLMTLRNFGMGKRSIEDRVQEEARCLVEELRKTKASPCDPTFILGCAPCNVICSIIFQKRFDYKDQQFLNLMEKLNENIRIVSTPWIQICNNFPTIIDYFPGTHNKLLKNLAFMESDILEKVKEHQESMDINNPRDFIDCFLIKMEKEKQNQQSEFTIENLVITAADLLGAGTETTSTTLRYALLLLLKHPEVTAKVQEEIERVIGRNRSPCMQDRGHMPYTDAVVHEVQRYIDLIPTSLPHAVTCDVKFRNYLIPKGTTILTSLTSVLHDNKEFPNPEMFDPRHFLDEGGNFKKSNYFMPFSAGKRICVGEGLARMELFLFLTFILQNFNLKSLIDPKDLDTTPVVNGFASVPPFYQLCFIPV
Kind of series: CYP inhibition in human liver microsomes, 2C19. Format: in vitro ADME. The procedure:
Table S2. Result of microsomal stability, plasma protein binding rate, and CYP inhibition of 6l and 6y
Compound MSa PPBrat human rat human 1A2 2C9 2C19 2D6 3A4
a % of remaining after 30 min. b plasma protein binding rate (%) at 5 μM concentrations. c % of CYP
inhibition in human liver microsomes at 10 μM concentrations. […]
On the technique in general: Liver microsomes are vesicles of endoplasmic reticulum, rich in cytochrome P450 enzymes.

The source of these data is paper PMC12561453, “Synthesis and Structure–Activity Relationship Study of 2-(amino)quinazolin-4(3H)-one Derivatives as Potential Inhibitors of Methicillin-Resistant Staphylococcus aureus (MRSA)” (Antibiotics, 2025).

Converted amounts (≈) assume the structure as drawn. A value given as a limit tells only on which side of the number the result lay.

With `O=c1[nH]c(Nc2cc(Cl)cc(Cl)c2)nc2cc(Cl)ccc12` [6l, 7-Chloro-2-((3,5-dichlorophenyl)amino)quinazolin-4(3H)-one], in series [1], the MIC50 was 12.1 µM (≈ 4.12 µg/mL). The inhibition (commonly how much of the control response was suppressed) at 10 µM in series [2] is less than 1%.
In the case of `O=c1[nH]c(NCc2ccc(F)c(F)c2)nc2cc(Cl)ccc12` [6y, 7-Chloro-2-((3,4-difluorobenzyl)amino)quinazolin-4(3H)-one], the “distortion of H460 cell morphology (in words)” value in series [1] (6.25 µM, brightfield images, 24 h) was “relatively minimal distortion of H460 cell morphology”. For the same compound, in series [1] (6.25 µM, confocal images, 24 h), the “bacterial load in infected H460 cells (in words)” value was “markedly reducing the bacterial load”. In addition, in series [1] (H460 cells infected with USA300 JE2-GFP, 24 h, GFP fluorescence), the “H460 Assay MIC50 (MIC50 ex vivo)” value was 1.9 µM. Moreover, the MIC50 in series [1] was found to be 1.9 µM (≈ 0.611 µg/mL). The inhibition at 10 µM in series [2] is 93.6%.
